# Read-outs that look alike come from different tables or passages of the source.
# Columns and labels:
# [1] = test system: bean weevil Callosobruchus maculatus; experiment: Pesticidal activity in a closed space on adult weevil (LC50); format: in vivo
# Description: (§1) The pesticidal activity of the extracts is measured in a closed space on adult insects. Each value represents the mean of three experiments, each involving 30 insects representative of three different insect orders: • lepidoptera (the clothes moth Tineola bisselliella), • isoptera (the Saintonge termite Reticulitermes santonensis), and • coleoptera (the bean weevil Callosobruchus maculatus)
# [2] = test system: clothes moth Tineola bisselliella; experiment: whole plant or invertebrate; format: in vivo; settings: for LC50: Tineola bisselliella; for insecticidal activity: closed space, insects tested
# Description: as §1
# [3] = ambient temperature storage; cited from earlier work
# [4] = adult insects, closed space, 24 h of treatment, NQ = non-quantifiable due to the absence of activity, read-out: Weevil LC50
Structure (SMILES),"LC50 ([1]; adult insects, closed space, 24 h, NQ = no activity, read-out: Weevil LC50 observed) [mg/L]","LC50 [1, 4] [mg/L]","LC50 ([1]; theoretical, from total DASn content compared with DAS2 activity, read-out: Weevil LC50 calculated) [mg/L]","LC50 ([2]; 24 h, read-out: Mite LC50) [mg/L]","LC50 ([2]; 24 h, read-out: Mite LC50 observed) [mg/L]",LC50 ([2]; read-out: Mite LC50 calculated) [mg/L],insecticidal activity [2],stability at ambient temperature [3]
"C=CCSSCC=C [DAS2, diallyl disulfide]",0.5,0.5,0.5,0.02,0.02,0.02,show an insecticidal activity,–
"C=CCS[S+]([O-])CC=C (stereo not shown) [TiA2, allicin]",–,0.16,–,–,–,–,show an insecticidal activity,low stability

# Source: patent US20080214678A1, “Biopesticide Comprising a Composition Rich in Diallyl Polysulphides” (priority 2003, published 2008)
